Reference: patent publication US20220288148A1, “METHODS FOR RELIEVING BACK PAIN WITH TERMINALIA CHEBULA COMPOSITIONS” (Natreon, Inc., priority 2021, published 2022)

Assays:
low back pain = assay: Case reports of human subjects with low back pain (Examples 2-5); assay type: in vivo; conditions: before AyuFlex
Procedure: Several human subjects suffering from back pain were administered an effective amount of a T. chebula composition according to the present invention (AyuFlex®, an aqueous extract of T. chebula fruit in powdered and standardized form, orally administered in a capsule containing 500 mg of the extract). […] Subject weights ranged from 54.5 kg to 72.7 kg, and daily doses ranged from 500 mg to 2000 mg per day of AyuFlex®, which may be calculated at a dose range of about 6.88 mg AyuFlex®/kg body weight of a subject to about 36.7 mg AyuFlex®/kg body weight of a subject.
Prior to administration of AyuFlex®, the subject reported a history of suffering from chronic low back pain, described by the subject as sciatic pain, as well as from patellar tendonitis, for the past ten years. The subject indicated their belief that the low back pain was due to a very active lifestyle that included lifting heavy weights. They previously attempted to relieve the chronic low back pain with numerous rounds of physical therapy and rehab-based regimens, but was only provided with temporary relief until they resumed exercise.
The subject began oral administration of 2 (two) 500 mg AyuFlex® capsules daily to treat their low back pain.
Prior to administration of AyuFlex®, the subject reported a history of back pain described by the subject as sciatic pain, beginning when they were young. They were a gymnast for many years, and as a result injured their back. They were diagnosed with small compression fractures and disk bulges in their lower back. Throughout their teen years, the subject underwent intermittent physical therapy, and also sought treatment from a chiropractor for two years. Although the subject reported some temporary relief from these treatments, their pain was not resolved.
The subject further reported that, due to lack of exercise over the years, their sciatic pain became extremely severe. […] Within a month of the onset of these severe symptoms, the subject described having only one or two days where […] was pain-free. […] reported relying heavily on acetaminophen (Tylenol®) and ibuprofen (Advil®) to ease their pain, as they were often not able to sleep due to the sharp sciatic pain. […] Along with the sciatic pain, for a few months before beginning administration of Ayuflex®, the subject reported experiencing stiffness in […] lower back as well. […] reported needing to bend their back to walk for a few minutes after they would stand.
The subject began oral administration of Ayuflex®, taking a 500 mg capsule twice daily for about 2 months, and then recently chose to increase the dosage to 1000 mg (2 capsules) twice daily. […]

[1] = system: collagen-induced arthritis; conditions: mice with collagen-induced arthritis; cited from earlier work
[2] = system: subjects with hyperuricemia; conditions: cited from earlier work

| Structure (SMILES) | subject-reported pain relief by prior analgesics (low back pain; Example 3 subject) | subject-reported pain relief by prior analgesics (low back pain; Example 5 subject) | also measured |
| --- | --- | --- | --- |
| CC(=O)Nc1ccc(O)cc1 [acetaminophen] | only relieved their pain for a few hours | only relieved the pain for a few hours | – |
| O=C(O)C[C@@H]1C(=O)O[C@H]2[C@H](OC(=O)c3cc(O)c(O)c(O)c3)[C@@H](OC(=O)c3cc(O)c(O)c4c3[C@H]1[C@H](O)C(=O)O4)[C@H](OC(=O)c1cc(O)c(O)c(O)c1)O[C@@H]2COC(=O)c1cc(O)c(O)c(O)c1 [chebulinic acid] | – | – | conclusion on anti-VEGF antiangiogenic action for inflammatory arthritis [1]: safe and potent anti-VEGF antiangiogenic agent |
| Cc1nc(-c2ccc(OCC(C)C)c(C#N)c2)sc1C(=O)O [febuxostat] | – | – | reduction in mean serum uric acid levels compared to baseline ([2]; as early as 4 weeks, T. bellerica 500 and 250 mg BID, febuxostat 40 mg, T. chebula 500 mg BID): Significant reduction; serum uric acid levels, baseline ([2]; baseline, T. bellerica 500 mg BID, febuxostat 40 mg once daily, in mg/dL (unit assumed)): 8.53±0.97; serum uric acid levels at the end of 24 weeks ([2]; end of 24 weeks, T. bellerica 500 mg BID, febuxostat 40 mg once daily, in mg/dL (unit assumed)): 4.28±0.67 |
| CC(C)Cc1ccc(C(C)C(=O)O)cc1 (centres unmarked) [ibuprofen] | only relieved their pain for a few hours | only relieved the pain for a few hours | – |
